Drawing on patent publication US20230094952A1, “Method for Culturing Hematopoietic Stem Cells” (Sumitomo Pharma Co., Ltd., priority 2019, published 2023), this text covers KLS-positive rate, Viable cell count and mCherry-positive rate for seven molecules.

SMILES strings stand for the structures.

In this assay the test system is mouse long-term hematopoietic stem cells. Nature of the assay: Reproducibility and concentration dependence test: 1-week culture of sorted Hoxb5-tri-mCherry mouse long-term hematopoietic stem cells, flow cytometry. In kind it is cell-based. The conditions noted are these: day 7 of culture, n=2. The method, boiled down: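 Hoxb5-tri-mCherry+ LT-HSCs (Lin−c-Kit+Sca-1+Flk2−CD34−/lo CD150+) were sorted from mouse bone marrow at 10 cells/well into StemSpan SFEM with SCF and TPO. Cells were cultured with compound for 1 week at 37°C, 5% CO2. Flow cytometry then measured KLS and mCherry+ fractions and cell counts.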
On the technique in general: Flow cytometry measures light scatter and fluorescence of single cells or particles in a stream.

For the molecule `C[C@H]1[C@@H](OCc2ccccc2)O[C@@H]2O[C@@]3(C)CC[C@H]4[C@H](C)CC[C@@H]1[C@@]24OO3` [Example 1-24, (3R,5aS,6R,8aS,9R,10S,12R,12aR)-10-(benzyloxy)-3,6,9-trimethyldecahydro-12H-3,12-epoxypyrano[4,3-j][1,2]benzodioxepine], the KLS-positive rate (Table 4, compound 0.1 μM) came to 73.6%; the KLS-positive rate (Table 4, compound 0.3 μM) was 0.0%; the KLS-positive rate (Table 4, compound 1 μM) is 0.0%; the KLS-positive rate (Table 4, compound 3 μM) was found to be 0.0%; the KLS-positive rate (Table 4, compound 10 μM) was found to be 0.0%. Moreover, the Viable cell count reads like this: (Table 4, compound 0.1 μM) 18.0 cell; (Table 4, compound 0.3 μM) 0.5 cell; (Table 4, compound 1 μM) 0.5 cell; (Table 4, compound 3 μM) 0.0 cell; (Table 4, compound 10 μM) 0.5 cell. Moreover, the mCherry-positive rate by setting is: (Table 4, compound 0.1 μM) 94.1%; (Table 4, compound 0.3 μM) 50.0%; (Table 4, compound 1 μM) 50.0%; (Table 4, compound 3 μM) 0.0%; (Table 4, compound 10 μM) 0.0%.
Regarding `C[C@H]1[C@H](Oc2ccccc2)O[C@@H]2O[C@@]3(C)CC[C@H]4[C@H](C)CC[C@@H]1[C@@]24OO3` [Example 1-25, (3R,5aS,6R,8aS,9R,10R,12R,12aR)-3,6,9-trimethyl-10-phenoxydecahydro-12H-3,12-epoxypyrano[4,3-j][1,2]benzodioxepine], the KLS-positive rate reads like this: (Table 4, compound 0.1 μM) 40.0%; (Table 4, compound 0.3 μM) 0.0%; (Table 4, compound 1 μM) 0.0%; (Table 4, compound 3 μM) 50.0%; (Table 4, compound 10 μM) 0.0%. In addition, the Viable cell count runs as follows: (Table 4, compound 0.1 μM) 181.5 cell; (Table 4, compound 0.3 μM) 0.5 cell; (Table 4, compound 1 μM) 0.0 cell; (Table 4, compound 3 μM) 0.5 cell; (Table 4, compound 10 μM) 0.0 cell. Besides, the mCherry-positive rate runs as follows: (Table 4, compound 0.1 μM) 52.3%; (Table 4, compound 0.3 μM) 0.0%; (Table 4, compound 1 μM) 0.0%; (Table 4, compound 3 μM) 50.0%; (Table 4, compound 10 μM) 0.0%.
Regarding `CC(=O)OCCO[C@@H]1O[C@@H]2O[C@@]3(C)CC[C@H]4[C@H](C)CC[C@@H]([C@H]1C)[C@@]24OO3` [Example 1-27, 2-{[(3R,5aS,6R,8aS,9R,10R,12R,12aR)-3,6,9-Trimethyldecahydro-12H-3,12-epoxypyrano[4,3-j][1,2]benzodioxepin-10-yl]oxy}ethyl acetate], the KLS-positive rate by setting is: (Table 4, compound 0.1 μM) 45.4%; (Table 4, compound 0.3 μM) 75.0%; (Table 4, compound 1 μM) 100.0%; (Table 4, compound 3 μM) 90.0%; (Table 4, compound 10 μM) 49.8%. Further, the Viable cell count reads like this: (Table 4, compound 0.1 μM) 122.0 cell; (Table 4, compound 0.3 μM) 14.5 cell; (Table 4, compound 1 μM) 6.0 cell; (Table 4, compound 3 μM) 6.0 cell; (Table 4, compound 10 μM) 17.5 cell. For the same molecule, the mCherry-positive rate was determined as 44.3% (Table 4, compound 0.1 μM); 94.7% (Table 4, compound 0.3 μM); 100.0% (Table 4, compound 1 μM); 100.0% (Table 4, compound 3 μM); 100.0% (Table 4, compound 10 μM).
Regarding `CC1=CO[C@@H]2O[C@@]3(C)CC[C@H]4[C@H](C)CC[C@@H]1[C@@]24OO3` [Example 1-28, (3R,5aS,6R,8aS,12R,12aR)-3,6,9-trimethyl-3,4,5,5a,6,7,8,8a-octahydro-12H-3,12-epoxypyrano[4,3-j][1,2]benzodioxepine], the KLS-positive rate reads like this: (Table 4, compound 0.1 μM) 21.5%; (Table 4, compound 0.3 μM) 13.5%; (Table 4, compound 1 μM) 10.5%; (Table 4, compound 3 μM) 16.5%; (Table 4, compound 10 μM) 41.2%. Besides, the Viable cell count (Table 4, compound 0.1 μM) was found to be 275.5 cell; the Viable cell count (Table 4, compound 0.3 μM) is 305.0 cell; the Viable cell count (Table 4, compound 1 μM) was found to be 522.0 cell; the Viable cell count (Table 4, compound 3 μM) came out at 283.0 cell; the Viable cell count (Table 4, compound 10 μM) came to 138.0 cell. Also, the mCherry-positive rate reads like this: (Table 4, compound 0.1 μM) 12.9%; (Table 4, compound 0.3 μM) 15.0%; (Table 4, compound 1 μM) 35.5%; (Table 4, compound 3 μM) 80.3%; (Table 4, compound 10 μM) 96.4%.
With `C[C@H]1[C@@H](O)O[C@@H]2O[C@@]3(C)CC[C@H]4[C@H](C)CC[C@@H]1[C@@]24OO3` [Example 1-29, artenimol, reference compound], the KLS-positive rate is, setting by setting: (Table 3, compound 0.1 μM) 8.92%; (Table 3, compound 0.3 μM) 18%; (Table 3, compound 1 μM) 20.05%; (Table 3, compound 3 μM) 0%; (Table 3, compound 10 μM) 0%; (Table 4, compound 0.1 μM) 19.4%. In addition, the KLS-positive rate is, setting by setting: (Table 4, compound 0.3 μM) 13.7%; (Table 4, compound 1 μM) 11.3%; (Table 4, compound 3 μM) 80.0%; (Table 4, compound 10 μM) 50.0%. The Viable cell count (Table 3, compound 0.1 μM) is listed as 1563 cell; the Viable cell count (Table 3, compound 0.3 μM) is 2268 cell; the Viable cell count (Table 3, compound 1 μM) amounted to 666.5 cell; the Viable cell count (Table 3, compound 3 μM) was determined as 0 cell; the Viable cell count (Table 3, compound 10 μM) came to 0 cell; the Viable cell count (Table 4, compound 0.1 μM) came to 469.5 cell. Also, the Viable cell count (Table 4, compound 0.3 μM) is 215.0 cell; the Viable cell count (Table 4, compound 1 μM) is 248.0 cell; the Viable cell count (Table 4, compound 3 μM) came to 4.5 cell; the Viable cell count (Table 4, compound 10 μM) is 0.5 cell. Further, the mCherry-positive rate is reported as 16.9% (Table 3, compound 0.1 μM); 42.4% (Table 3, compound 0.3 μM); 84.8% (Table 3, compound 1 μM); 0% (Table 3, compound 3 μM); 0% (Table 3, compound 10 μM); 13.3% (Table 4, compound 0.1 μM). The mCherry-positive rate by setting is: (Table 4, compound 0.3 μM) 6.0%; (Table 4, compound 1 μM) 3.9%; (Table 4, compound 3 μM) 100.0%; (Table 4, compound 10 μM) 50.0%.
Consider `CCO[C@H]1O[C@@H]2O[C@@]3(C)CC[C@H]4[C@H](C)CC[C@@H]([C@H]1C)[C@@]24OO3` [Example 1-31, artemotil, reference compound], for which the KLS-positive rate by setting is: (Table 3, compound 0.1 μM) 28.85%; (Table 3, compound 0.3 μM) 21.95%; (Table 3, compound 1 μM) 30.8%; (Table 3, compound 3 μM) 66.65%; (Table 3, compound 10 μM) 0%; (Table 4, compound 0.1 μM) 26.5%. In addition, the KLS-positive rate runs as follows: (Table 4, compound 0.3 μM) 19.7%; (Table 4, compound 1 μM) 62.3%; (Table 4, compound 3 μM) 87.5%; (Table 4, compound 10 μM) 25.0%. For the same molecule, the Viable cell count came out at 1073 cell (Table 3, compound 0.1 μM); 1529 cell (Table 3, compound 0.3 μM); 249 cell (Table 3, compound 1 μM); 8 cell (Table 3, compound 3 μM); 0 cell (Table 3, compound 10 μM); 201.5 cell (Table 4, compound 0.1 μM). Moreover, the Viable cell count runs as follows: (Table 4, compound 0.3 μM) 194.0 cell; (Table 4, compound 1 μM) 19.5 cell; (Table 4, compound 3 μM) 2.5 cell; (Table 4, compound 10 μM) 1.5 cell. In addition, the mCherry-positive rate is recorded as 57.4% (Table 3, compound 0.1 μM); 47.65% (Table 3, compound 0.3 μM); 92.85% (Table 3, compound 1 μM); 100% (Table 3, compound 3 μM); 0% (Table 3, compound 10 μM); 84.9% (Table 4, compound 0.1 μM). Moreover, the mCherry-positive rate (Table 4, compound 0.3 μM) is listed as 96.3%; the mCherry-positive rate (Table 4, compound 1 μM) stood at 98.3%; the mCherry-positive rate (Table 4, compound 3 μM) is 100.0%; the mCherry-positive rate (Table 4, compound 10 μM) was 50.0%.
Turning to `C[C@H]1[C@H](OC(=O)CCC(=O)O)O[C@@H]2O[C@@]3(C)CC[C@H]4[C@H](C)CC[C@@H]1[C@@]24OO3` [Example 1-32, artesunate, reference compound], the KLS-positive rate is listed as 36.3% (Table 3, compound 0.1 μM); 46.4% (Table 3, compound 0.3 μM); 45.3% (Table 3, compound 1 μM); 0% (Table 3, compound 3 μM); 0% (Table 3, compound 10 μM); 21.0% (Table 4, compound 0.1 μM). Also, the KLS-positive rate turned out to be 12.4% (Table 4, compound 0.3 μM); 90.6% (Table 4, compound 1 μM); 21.2% (Table 4, compound 3 μM); 0.0% (Table 4, compound 10 μM). Moreover, the Viable cell count (Table 3, compound 0.1 μM) stood at 1065.5 cell; the Viable cell count (Table 3, compound 0.3 μM) is recorded as 540 cell; the Viable cell count (Table 3, compound 1 μM) is 266 cell; the Viable cell count (Table 3, compound 3 μM) is listed as 0.5 cell; the Viable cell count (Table 3, compound 10 μM) is on record as 0.5 cell; the Viable cell count (Table 4, compound 0.1 μM) is 597.5 cell. The Viable cell count is 355.5 cell (Table 4, compound 0.3 μM); 9.0 cell (Table 4, compound 1 μM); 1.0 cell (Table 4, compound 10 μM). The mCherry-positive rate by setting is: (Table 3, compound 0.1 μM) 23.59%; (Table 3, compound 0.3 μM) 35.1%; (Table 3, compound 1 μM) 91.2%; (Table 3, compound 3 μM) 50%; (Table 3, compound 10 μM) 0%; (Table 4, compound 0.1 μM) 9.4%. Moreover, the mCherry-positive rate by setting is: (Table 4, compound 0.3 μM) 6.0%; (Table 4, compound 1 μM) 100.0%; (Table 4, compound 3 μM) 53.3%; (Table 4, compound 10 μM) 25.0%.
